Results reported in patent US8030487B2, “2-amino—5-substituted pyrimidine inhibitors” (TargeGen, Inc., priority 2006, dated 2011).

Key:
VEGFR2 = biological target: T1, VEGFR2 (Homo sapiens, UniProt P35968); assay: VEGFR2 kinase inhibition (residual ATP luminescence); type: biochemical; conditions: 1.5 uM ATP, 60 min 37° C.
T1 construct: purchased Cell Signaling/ProQinase
Experimental: (§1) The ability of compounds of the present invention to inhibit the activity of various groups of kinases was tested. Kinases that were tested are described below. All kinase reactions were conducted in 96-well plates with a final reaction volume of 50 μl.
(§2) EGFR and VEGFR2 kinase assays were similarly performed. EGFR (76 ng/well, Panvera/Invitrogen) was combined with 12.5 mg/ml poly(glu4tyr) (Sigma) and 2.5 uM ATP. VEGFR2 (14.1 U/well, Cell Signaling/ProQinase) was used with 0.3 mg/ml poly(glu4tyr) and 1.5 uM ATP. Both were incubated for 60 minutes at 37° C., and the residual ATP was measured via luminescence, per the procedure described above.

human c-Src = biological target: T2, human c-Src (Homo sapiens, UniProt P12931); assay: Src kinase inhibition (KinaseGlo residual ATP); type: biochemical; conditions: ATP 3 μM, 90 min room temperature
T2 construct: purchased Panvera/Invitrogen
Experimental: as §1
(§3) Recombinant human c-Src or Yes, or Fyn, or Lck (28 ng/well, Panvera/Invitrogen, Madison Wis.), ATP (3 μM), a tyrosine kinase substrate (PTK2, 250 μM, Promega Corp., Madison Wis.), and test agents (at concentrations ranging from about 1 nM/l to about 100 μM/l), in the presence of Src kinase reaction buffer (Upstate USA, Lake Placid N.Y.). After reacting for about 90 minutes at room temperature, residual ATP was determined using a luciferase-based assay (KinaseGlo, Promega Corp.) as a measure of kinase activity. Data from four wells were then averaged and used to determine IC50 values for the test compounds (Prism software package, GraphPad Software, San Diego Calif.).

Yes = biological target: T3, Yes (Homo sapiens, UniProt P07947); assay: Yes kinase inhibition (KinaseGlo); type: biochemical
T3 construct: purchased Panvera/Invitrogen
Experimental: as §1, §3

Abl = Abl (Homo sapiens, UniProt P00519); assay: Abl kinase inhibition; type: biochemical
Experimental: as §1
Src Family of Kinases, abl, and Ret
as §3

Lck = biological target: T4, Lck (Homo sapiens, UniProt P06239); assay: Lck kinase inhibition (KinaseGlo); type: biochemical
T4 construct: purchased Panvera/Invitrogen
Experimental: as §1, §3

EGFR = biological target: T5, EGFR (Homo sapiens, UniProt P00533); assay: EGFR kinase inhibition (residual ATP); type: biochemical; conditions: 2.5 uM ATP, 60 min 37° C.
T5 construct: purchased Panvera/Invitrogen
Experimental: as §1, §2

[1] = tested on: human retinal micro vascular endothelial cells (hRMVEC); assay: Cellular data using hRMVEC; type: cell-based; conditions: Endothelial cell

T2 sequence (P12931 whole entry): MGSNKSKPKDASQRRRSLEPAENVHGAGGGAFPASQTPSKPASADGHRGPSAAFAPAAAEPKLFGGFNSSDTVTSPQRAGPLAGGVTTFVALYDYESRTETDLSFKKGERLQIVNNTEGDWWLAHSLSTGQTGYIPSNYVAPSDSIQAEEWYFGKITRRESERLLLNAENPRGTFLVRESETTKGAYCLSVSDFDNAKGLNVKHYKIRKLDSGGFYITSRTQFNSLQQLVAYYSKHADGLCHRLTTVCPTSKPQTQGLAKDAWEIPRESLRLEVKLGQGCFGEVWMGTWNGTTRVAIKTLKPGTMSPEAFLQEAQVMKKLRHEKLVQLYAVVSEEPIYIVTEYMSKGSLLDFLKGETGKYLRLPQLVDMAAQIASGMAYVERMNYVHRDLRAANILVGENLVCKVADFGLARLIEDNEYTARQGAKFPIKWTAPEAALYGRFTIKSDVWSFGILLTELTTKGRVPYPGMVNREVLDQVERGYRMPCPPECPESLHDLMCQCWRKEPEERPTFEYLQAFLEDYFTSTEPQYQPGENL
T5 sequence (P00533 25-1210, species assumed): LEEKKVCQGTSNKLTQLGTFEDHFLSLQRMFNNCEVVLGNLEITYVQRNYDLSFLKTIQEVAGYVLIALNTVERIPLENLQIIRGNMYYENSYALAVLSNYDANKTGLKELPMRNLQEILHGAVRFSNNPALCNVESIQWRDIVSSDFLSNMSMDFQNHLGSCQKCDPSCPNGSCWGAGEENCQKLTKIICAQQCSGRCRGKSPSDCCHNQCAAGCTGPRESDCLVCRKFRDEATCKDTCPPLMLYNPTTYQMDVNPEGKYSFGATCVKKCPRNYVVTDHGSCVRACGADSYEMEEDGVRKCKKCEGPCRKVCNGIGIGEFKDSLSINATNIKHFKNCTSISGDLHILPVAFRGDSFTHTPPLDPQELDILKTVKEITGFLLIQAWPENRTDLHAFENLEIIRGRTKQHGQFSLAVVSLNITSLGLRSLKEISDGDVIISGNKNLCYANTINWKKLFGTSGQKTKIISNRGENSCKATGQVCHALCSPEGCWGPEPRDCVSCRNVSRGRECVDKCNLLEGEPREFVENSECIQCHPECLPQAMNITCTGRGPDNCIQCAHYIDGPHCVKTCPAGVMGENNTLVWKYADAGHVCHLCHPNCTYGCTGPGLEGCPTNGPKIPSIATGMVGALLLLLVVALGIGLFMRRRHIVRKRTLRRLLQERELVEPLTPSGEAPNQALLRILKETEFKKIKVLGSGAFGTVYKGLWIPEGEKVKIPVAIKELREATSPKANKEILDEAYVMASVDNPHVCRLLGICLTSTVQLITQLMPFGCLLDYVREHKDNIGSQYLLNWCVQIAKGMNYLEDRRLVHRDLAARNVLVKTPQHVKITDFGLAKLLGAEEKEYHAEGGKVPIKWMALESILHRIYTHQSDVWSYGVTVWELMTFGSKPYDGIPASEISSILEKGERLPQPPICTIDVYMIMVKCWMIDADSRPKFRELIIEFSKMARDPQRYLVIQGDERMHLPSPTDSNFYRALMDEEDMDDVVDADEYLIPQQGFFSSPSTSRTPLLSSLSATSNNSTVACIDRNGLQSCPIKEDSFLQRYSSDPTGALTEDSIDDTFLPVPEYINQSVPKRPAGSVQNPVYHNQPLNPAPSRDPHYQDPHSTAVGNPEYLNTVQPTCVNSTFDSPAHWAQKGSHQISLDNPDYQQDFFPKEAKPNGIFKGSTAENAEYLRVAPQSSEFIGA
T3 sequence (P07947 whole entry): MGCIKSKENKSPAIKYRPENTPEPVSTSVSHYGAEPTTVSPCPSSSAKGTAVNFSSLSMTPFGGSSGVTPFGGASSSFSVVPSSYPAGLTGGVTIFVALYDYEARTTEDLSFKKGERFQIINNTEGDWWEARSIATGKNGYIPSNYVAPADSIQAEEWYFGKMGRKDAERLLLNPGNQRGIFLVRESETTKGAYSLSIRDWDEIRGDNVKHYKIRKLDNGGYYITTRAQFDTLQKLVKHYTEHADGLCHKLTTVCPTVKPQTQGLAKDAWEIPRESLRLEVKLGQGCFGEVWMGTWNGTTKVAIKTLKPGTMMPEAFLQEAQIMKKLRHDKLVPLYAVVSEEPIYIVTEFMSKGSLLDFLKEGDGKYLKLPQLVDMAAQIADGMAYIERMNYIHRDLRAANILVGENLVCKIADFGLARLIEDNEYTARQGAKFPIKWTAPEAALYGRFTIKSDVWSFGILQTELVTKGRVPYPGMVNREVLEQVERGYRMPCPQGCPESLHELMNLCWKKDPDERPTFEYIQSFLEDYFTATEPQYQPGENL
Sequence of Abl (P00519 whole entry, species assumed): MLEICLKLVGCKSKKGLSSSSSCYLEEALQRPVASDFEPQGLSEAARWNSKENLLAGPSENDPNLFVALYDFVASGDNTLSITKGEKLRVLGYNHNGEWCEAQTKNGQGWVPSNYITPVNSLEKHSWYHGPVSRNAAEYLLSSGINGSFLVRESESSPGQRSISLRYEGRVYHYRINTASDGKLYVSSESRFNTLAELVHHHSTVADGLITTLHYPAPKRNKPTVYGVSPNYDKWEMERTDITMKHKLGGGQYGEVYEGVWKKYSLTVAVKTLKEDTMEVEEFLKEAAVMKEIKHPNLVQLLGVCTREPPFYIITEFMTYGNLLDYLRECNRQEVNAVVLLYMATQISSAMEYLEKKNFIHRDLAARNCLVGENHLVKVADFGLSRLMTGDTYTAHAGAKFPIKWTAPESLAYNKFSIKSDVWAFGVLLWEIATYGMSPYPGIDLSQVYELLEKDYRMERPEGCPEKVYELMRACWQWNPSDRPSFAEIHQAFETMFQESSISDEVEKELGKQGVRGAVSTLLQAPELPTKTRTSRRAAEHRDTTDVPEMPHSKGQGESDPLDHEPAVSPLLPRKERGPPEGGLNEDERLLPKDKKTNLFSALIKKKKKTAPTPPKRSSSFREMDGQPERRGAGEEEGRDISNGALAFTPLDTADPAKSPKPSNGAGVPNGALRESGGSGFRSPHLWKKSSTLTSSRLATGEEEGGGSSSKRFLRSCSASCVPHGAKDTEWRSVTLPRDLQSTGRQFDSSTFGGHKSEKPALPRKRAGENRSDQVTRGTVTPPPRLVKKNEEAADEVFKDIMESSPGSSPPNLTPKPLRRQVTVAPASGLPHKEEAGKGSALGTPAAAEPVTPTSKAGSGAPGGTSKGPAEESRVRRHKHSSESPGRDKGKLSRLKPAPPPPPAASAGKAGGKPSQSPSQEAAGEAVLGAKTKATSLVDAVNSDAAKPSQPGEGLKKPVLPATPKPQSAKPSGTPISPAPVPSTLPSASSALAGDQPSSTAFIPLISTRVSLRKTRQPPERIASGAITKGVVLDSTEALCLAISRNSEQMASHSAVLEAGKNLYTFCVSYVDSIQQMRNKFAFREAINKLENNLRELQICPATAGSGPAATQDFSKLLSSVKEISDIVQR
T4 sequence (P06239 whole entry): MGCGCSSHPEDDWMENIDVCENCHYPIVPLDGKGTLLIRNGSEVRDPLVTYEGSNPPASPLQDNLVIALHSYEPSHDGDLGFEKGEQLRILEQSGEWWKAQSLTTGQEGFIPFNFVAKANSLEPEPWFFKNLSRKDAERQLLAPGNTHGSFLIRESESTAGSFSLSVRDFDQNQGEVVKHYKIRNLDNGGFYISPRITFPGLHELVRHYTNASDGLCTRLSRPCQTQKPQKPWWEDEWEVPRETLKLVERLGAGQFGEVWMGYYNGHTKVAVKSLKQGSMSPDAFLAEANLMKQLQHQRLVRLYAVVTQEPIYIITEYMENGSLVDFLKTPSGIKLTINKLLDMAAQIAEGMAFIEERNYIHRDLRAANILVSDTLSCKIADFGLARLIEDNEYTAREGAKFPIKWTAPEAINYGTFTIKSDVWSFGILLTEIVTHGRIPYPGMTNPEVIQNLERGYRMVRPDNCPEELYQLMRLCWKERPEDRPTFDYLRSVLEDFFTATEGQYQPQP

Structure (SMILES) | IC50 (VEGFR2) [nM] | IC50 (human c-Src) [nM] | other results
O=C(Nc1ccc(Cl)c(C(=O)Nc2cnc(Nc3ccc(C(=O)N4CCN(CCO)CC4)nc3)nc2)c1)c1cccc(C(F)(F)F)c1 | 3.1 | 1.9 | –
Cc1ccc(NC(=O)c2cccc(C(F)(F)F)c2)cc1C(=O)Nc1cnc(Nc2ccc(S(=O)(=O)CCCN3CCCC3)cc2)nc1 | 14.2 | 3.8 | –
Cc1ccc(NC(=O)c2cccc(C(F)(F)F)c2)cc1C(=O)Nc1cnc(Nc2ccc(C(=O)NCCN3CCCC3)nc2)nc1 | 21 | 4.1 | –
O=C(NCCN1CCCC1)c1ccc(Nc2ncc(NC(=O)c3cc(NC(=O)c4cccc(C(F)(F)F)c4)ccc3Cl)cn2)cc1 | 2.2 | 1.4 | –
CN1CCN(C(=O)c2ccc(Nc3ncc(NC(=O)c4cc(NC(=O)c5cccc(C(F)(F)F)c5)ccc4Cl)cn3)cc2)CC1 | 2.3 | 1.7 | –
O=C(Nc1ccc(Cl)c(C(=O)Nc2cnc(Nc3ccc(OCCN4CCCC4)cc3)nc2)c1)c1cccc(F)c1 | 40.7 | 3 | –
Cc1ccc(NC(=O)Nc2cccc(C(F)(F)F)c2)cc1C(=O)Nc1cnc(Nc2cccc(OCCN3CCCC3)c2)nc1 | 73.1 | 1.8 | –
Cc1ccc(NC(=O)Nc2ccccc2)cc1C(=O)Nc1cnc(Nc2ccc(OCCN3CCCC3)cc2)nc1 | 168 | 4.5 | –
O=C(Nc1ccc(Cl)c(C(=O)Nc2cnc(Nc3ccc(S(=O)(=O)C4CCNCC4)cc3)nc2)c1)c1cc(C(F)(F)F)ccc1F | 22.3 | 4.2 | –
O=C(Nc1ccc(Cl)c(C(=O)Nc2cnc(Nc3ccc(S(=O)(=O)C4CCNCC4)cc3)nc2)c1)c1cccc(Cl)c1 | 11.6 | 2.5 | –
Cc1ccc(NC(=O)Nc2cccc(C(F)(F)F)c2)cc1C(=O)Nc1cnc(Nc2cccnc2)nc1 | 27.8 | 7.9 | –
O=C(Nc1ccc(Cl)c(CNc2cnc(Nc3cccnc3)nc2)c1)c1cccc(C(F)(F)F)c1 | 2.1 | 10.2 | –
O=C(Nc1ccc(Cl)c(C(=O)Nc2cnc(Nc3cccc(S(=O)(=O)NCCN4CCCC4)c3)nc2)c1)c1cccc(C(F)(F)F)c1 | 2.1 | 4 | –
O=C(Nc1ccc(Cl)c(C(=O)Nc2cnc(Nc3ccc(OCCN4CCCC4)cc3)nc2)c1)c1ccc(C(F)(F)F)cc1 | 12 | 3.3 | –
O=C(Nc1cccc(C(F)(F)F)c1)Nc1ccc(Cl)c(C(=O)Nc2cnc(Nc3cccnc3)nc2)c1 | 20.1 | 14.2 | –
O=C(Nc1ccc(Cl)c(NC(=O)c2cnc(Nc3ccc(OCCN4CCCC4)cc3)nc2)c1)c1cccc(C(F)(F)F)c1 | 43 | 50 | –
O=C(Nc1ccc(Cl)c(NC(=O)c2cnc(Nc3cccc(OCCN4CCCC4)c3)nc2)c1)c1cccc(C(F)(F)F)c1 | 149 | 67 | –
O=C(Nc1ccc(Cl)c(NC(=O)c2cnc(Nc3cccnc3)nc2)c1)c1cccc(C(F)(F)F)c1 | 178 | 86 | –
COc1ccc(Nc2ncc(NC(=O)c3cc(NC(=O)c4cccc(C(F)(F)F)c4)ccc3Cl)cn2)cc1 | 23 | 12 | –
O=C(Nc1ccc(Cl)c(C(=O)Nc2cnc(Nc3ccc(O)cc3)nc2)c1)c1cccc(C(F)(F)F)c1 | 15 | 19 | –
O=C(Nc1ccc(Cl)c(C(=O)Nc2cnc(Nc3ccc(OC(=O)c4ccccc4)cc3)nc2)c1)c1cccc(C(F)(F)F)c1 | 361 | 647 | –
Cc1cccc(NC(=O)c2cccc(C(=O)Nc3cnc(Nc4ccc(S(=O)(=O)CCCN5CCCC5)cc4)nc3)c2)c1 | 164 | – | –
O=C(Nc1ccc(Cl)c(C(=O)Nc2cnc(Nc3ccc(S(=O)(=O)CCCN4CCCC4)cc3)nc2)c1)c1cccc(C(F)(F)F)c1 [drawing 161] | 2.9 | – | –
O=C(Nc1ccc(Cl)c(C(=O)Nc2cnc(Nc3cccc(OCCN4CCCC4)c3)nc2)c1)c1cccc(C(F)(F)F)c1 [drawing 162] | 2.7 | 2.1 | –
Cc1ccc(NC(=O)c2cccc(C(F)(F)F)c2)cc1C(=O)Nc1cnc(Nc2cccc(OCCN3CCCC3)c2)nc1 [drawing 163] | 13.8 | 3.9 | –

Structure (SMILES) | IC50 (VEGFR2) [nM] | IC50 (human c-Src) [nM] | other results
O=C(Nc1ccc(Cl)c(C(=O)Nc2cnc(Nc3ccc(S(=O)(=O)C4CCNCC4)cc3)nc2)c1)c1cccc(C(F)(F)F)c1 [drawing 169] | 4.5 | 1.8 | –
Cc1ccc(NC(=O)c2cccc(C(F)(F)F)c2)cc1C(=O)Nc1cnc(Nc2ccc(OCCN3CCCC3)cc2)nc1 [drawing 170] | 3.2 | 3.3 | –
O=C(Nc1ccc(Cl)c(C(=O)Nc2cnc(Nc3ccc(OCCN4CCCC4)cc3)nc2)c1)c1cccc(C(F)(F)F)c1 [drawing 171] | 0.8 | 1.2 | –
O=C(Nc1ccc(Cl)c(C(=O)Nc2cnc(Nc3ccccc3)nc2)c1)c1cccc(C(F)(F)F)c1 [drawing 181] | 9.6 | 4.5 | –
Cc1ccc(Nc2nccc3ccccc23)cc1C(=O)Nc1cnc(Nc2cccc(OCCN3CCCC3)c2)nc1 [drawing 186] | 3350 | 23.3 | –
O=C(Nc1cccc(C(F)(F)F)c1)Nc1ccc(Cl)c(C(=O)Nc2cnc(Nc3ccc(OCCN4CCCC4)cc3)nc2)c1 [drawing 202] | 7.1 | 2.2 | –
O=C(Nc1ccc(Cl)c(C(=O)Nc2cnc(Nc3cccnc3)nc2)c1)c1cccc(C(F)(F)F)c1 [drawing 211] | 5.4 | 4.7 | –
O=C(Nc1ccc(Cl)c(C(=O)Nc2cnc(Nc3cccc(OCCN4CCCC4)c3)nc2)c1)c1cccc(C(F)(F)F)c1 [drawing 225] | – | – | IC50 (Yes): 0.52 nM; IC50 (Abl): 1.1 nM; IC50 (Lck): 1.7 nM
Cc1ccc(NC(=O)c2cccc(C(F)(F)F)c2)cc1C(=O)Nc1cnc(Nc2cccc(OCCN3CCCC3)c2)nc1 [drawing 226] | – | – | IC50 (Yes): 0.93 nM; IC50 (Lck): 3.8 nM
O=C(Nc1cnc(Nc2cccc(OCCN3CCCC3)c2)nc1)c1cc(NC(=O)C(F)(F)F)ccc1Cl [drawing 227] | – | – | IC50 (Abl): 154 nM
O=C(Nc1ccc(Cl)c(C(=O)Nc2cnc(Nc3ccc(S(=O)(=O)C4CCNCC4)cc3)nc2)c1)c1cccc(C(F)(F)F)c1 [drawing 228] | – | – | IC50 (Yes): 0.9 nM; IC50 (Abl): 0.2 nM; IC50 (Lck): 4.5 nM
Cc1ccc(NC(=O)c2cccc(C(F)(F)F)c2)cc1C(=O)Nc1cnc(Nc2ccc(OCCN3CCCC3)cc2)nc1 [drawing 229] | – | – | IC50 (Yes): 1.3 nM; IC50 (Abl): 5.5 nM; IC50 (Lck): 5.1 nM
O=C(Nc1ccc(Cl)c(C(=O)Nc2cnc(Nc3ccc(OCCN4CCCC4)cc3)nc2)c1)c1cccc(C(F)(F)F)c1 [drawing 230] | – | – | IC50 (Yes): 0.46 nM; IC50 (EGFR): 98 nM; IC50 (Abl): 1.8 nM; IC50 (Lck): 2.2 nM
O=C(Nc1ccc(Cl)c(C(=O)Nc2cnc(Nc3ccc(CCCN4CCCC4)cc3)nc2)c1)c1cccc(C(F)(F)F)c1 [drawing 231] | – | – | IC50 (Abl): 3.8 nM
Cc1ccc(NC(=O)C(F)(F)F)cc1C(=O)Nc1cnc(Nc2cccc(OCCN3CCCC3)c2)nc1 [drawing 232] | – | – | IC50 (Abl): 126 nM
O=C(Nc1ccc(Cl)c(C(=O)Nc2cnc(Nc3ccc(CCCN4CCCC4)cc3)nc2)c1)c1cccc(C(F)(F)F)c1 [drawing 233] | – | – | IC50 (EGFR): 124 nM
O=C(Nc1ccc(Cl)c(C(=O)Nc2cnc(Nc3ccccc3)nc2)c1)c1cccc(C(F)(F)F)c1 [drawing 234] | – | – | IC50 (Yes): 4.2 nM; IC50 (Lck): 32.2 nM
Cc1ccc(Nc2nccc3ccccc23)cc1C(=O)Nc1cnc(Nc2cccc(OCCN3CCCC3)c2)nc1 [drawing 236] | – | – | IC50 (Yes): 22.2 nM; IC50 (Lck): 309 nM
O=C(Nc1cccc(C(F)(F)F)c1)Nc1ccc(Cl)c(C(=O)Nc2cnc(Nc3ccc(OCCN4CCCC4)cc3)nc2)c1 [drawing 237] | – | – | IC50 (Yes): 2.5 nM; IC50 (EGFR): 558 nM; IC50 (Lck): 22.4 nM
O=C(Nc1ccc(Cl)c(C(=O)Nc2cnc(Nc3cccc(OCCN4CCCC4)c3)nc2)c1)c1cccc(C(F)(F)F)c1 [drawing 238] | – | – | EC50 [1]: 69 nM
O=C(Nc1ccc(Cl)c(C(=O)Nc2cnc(Nc3ccc(S(=O)(=O)C4CCNCC4)cc3)nc2)c1)c1cccc(C(F)(F)F)c1 [drawing 239] | – | – | EC50 [1]: 1150 nM
Cc1ccc(NC(=O)c2cccc(C(F)(F)F)c2)cc1C(=O)Nc1cnc(Nc2ccc(OCCN3CCCC3)cc2)nc1 [drawing 240] | – | – | EC50 [1]: 199 nM
O=C(Nc1ccc(Cl)c(C(=O)Nc2cnc(Nc3ccc(OCCN4CCCC4)cc3)nc2)c1)c1cccc(C(F)(F)F)c1 [drawing 241] | – | – | EC50 [1]: 30 nM
O=C(Nc1ccc(Cl)c(C(=O)Nc2cnc(Nc3ccc(CCCN4CCCC4)cc3)nc2)c1)c1cccc(C(F)(F)F)c1 [drawing 242] | – | – | EC50 [1]: 41 nM
O=C(Nc1ccc(Cl)c(C(=O)Nc2cnc(Nc3cccnc3)nc2)c1)c1cccc(C(F)(F)F)c1 [drawing 243] | – | – | EC50 [1]: 68 nM
